Experimental data from patent US9068958B1, “Use of surface free energy for differential evaluation of crystal, crystal evaluated on basis of surface free energy as index, and pharmaceutical composition prepared by containing the crystal” (POLA PHARMA INC., priority 2012, dated 2015).

Experiments:
[1] = Storage testing under severely stressed condition of crystals suspended in water, isomer formation by HPLC; format: physicochemical; settings: light 6000 1×, 80° C., 6 hours, ratio to charging amount of luliconazole
Description: The storage testing under severely stressed condition was performed for Crystals 1 to 4. That is, each of the samples was suspended in water (infiltration condition or humidified condition), which was exposed to light at 6000 1× at 80° C. for 6 hours, followed by being collected by filtration and dried. After that, the ratio of the Z isomer of luliconazole with respect to the charging amount of luliconazole was measured and calculated. The measurement was performed by means of HPLC. The HPLC condition was as follows.
Column: CHIRALCEL OD-RH 4.6×150 mm, column temperature: 35° C., mobile phase: mixture solution of methanol/1.8% aqueous solution of potassium hexafluorophosphate (83:17, v/v), flow rate: 0.56 mL/min., detection: 295 nm.
As for the SE isomer, the storage testing under severely stressed testing was performed for the crystal in the same manner as the Z isomer. As a result, any difference was not observed in relation to the amount of formation depending on the difference in the crystal. That is, the tendency of the SE isomer was not observed for the crystal itself.

[2] = Surface free energy of crystal by liquid penetration rate measurement (contact angle, Owens-Wendt-Rabel-Kaelble method); format: physicochemical; settings: crystal powder; for γS^d, dispersion component of surface free energy / γS^p, polar component of surface free energy: solvents n-hexane, tetrachloromethane, benzene, 1-nitropropane, water; for γS, surface free energy: sum of dispersion and polar component
Description: The measurement of the surface free energy of the crystal may be performed in accordance with an ordinary method. For example, the contact angle with respect to the crystal is measured by means of the liquid penetration (permeation) rate measurement (machine type of apparatus: Processor Tensiometer K12, manufacturer: KRUSS GmbH) by using several solvents for which the surface free energy, the dispersion component of the surface free energy, and the polar component of the surface free energy are already known, and thus it is possible to perform the calculation therefrom by applying the model of Owens, Wendt, Rabel, and Kaelble. Preferred solvents for measurement in this method can be appropriately exemplified, for example, by n-hexane, […], benzene, nitrobenzene, 1-nitropropane, and water. As for the method as described above, it is possible to make reference, for example, to a method described in Japanese Patent Application Laid-open No. 2010-183064.
In relation to the surface free energy, the contact angle θ is calculated in accordance with the Washburn's equation from the penetration (permeation) rate of liquid into powder obtained by the liquid penetration (permeation) rate measurement (machine type of apparatus: Processor Tensiometer K12, manufacturer: KRUSS GmbH). The penetration (permeation) rate of the liquid in the chamber into the powder is measured by using a chamber tube shown in FIG. 4. […] Washburn's equation is represented by the following equation 1.
If this equation is converted into the weight of the solvent permeated into the powder per unit time, the following equation 2 is presented.
The contact angle θ is determined by measuring the penetration (permeation) rate by using a solvent for which the surface tension (γL), the density (ρ), and the viscosity (η) of the liquid are known. The polar component and the dispersion component of the surface free energy are calculated in accordance with the Owens-Wendt-Rabel-Kaelble method by using θ thus determined. That is, assuming that the surface free energy is composed of the non-polar dispersion component γ^d and the polar component γ^p, the following equations are presented. γS=γS^d+γS^p γL=γLd+γLp γSL=γS+γL−2√{square root over (yS^d·γL^d)}−2√{square root over (γS^p·γL^p)} Equation 3
If Young's equation, which holds among the surface tension of the liquid, the surface tension of the solid, and the solid-liquid interfacial tension, is substituted with the above, the following equation is obtained.
The contact angle θ is determined, and plotted by using several types of solvents having known γL, γL^d, γL^p, and thus it is possible to determine γS^p from the slope and γs^d from the intercept. n-Hexane, tetrachloromethane, benzene, 1-nitropropane, and water were used as the known solvents.
By utilizing the above, the surface free energy, the dispersion component of the surface free energy, the polar component of the surface free energy, and the ratio (%) of the polar component with respect to the surface free energy were calculated for samples (specimens) manufactured by the following methods.

N#C/C(=C1/SC[C@@H](c2ccc(Cl)cc2Cl)S1)n1ccnc1 [Crystal 1, Luliconazole]
Amount of formation of Z isomer (%) under condition of suspension in water and exposure to light ([1]; listed as 1): 0.11%
γS^p/γS, ratio of polar component of surface free energy ([2]; listed as 1): 44%
γS^d, dispersion component of surface free energy ([2]; listed as 1): 16.1 mJ/m^2
γS^p, polar component of surface free energy ([2]; listed as 1): 12.7 mJ/m^2
γS, surface free energy ([2]; listed as 1): 28.8 mJ/m^2

N#C/C(=C1/SC[C@@H](c2ccc(Cl)cc2Cl)S1)n1ccnc1 [Crystal 2, Luliconazole]
Amount of formation of Z isomer (%) under condition of suspension in water and exposure to light ([1]; listed as 2): 0.08%
γS^p/γS, ratio of polar component of surface free energy ([2]; listed as 2): 29%
γS^d, dispersion component of surface free energy ([2]; listed as 2): 19.5 mJ/m^2
γS^p, polar component of surface free energy ([2]; listed as 2): 7.9 mJ/m^2
γS, surface free energy ([2]; listed as 2): 27.4 mJ/m^2

N#C/C(=C1/SC[C@@H](c2ccc(Cl)cc2Cl)S1)n1ccnc1 [Crystal 3, Luliconazole]
Amount of formation of Z isomer (%) under condition of suspension in water and exposure to light ([1]; listed as 3): 0.07%
γS^p/γS, ratio of polar component of surface free energy ([2]; listed as 3): 31%
γS^d, dispersion component of surface free energy ([2]; listed as 3): 18.4 mJ/m^2
γS^p, polar component of surface free energy ([2]; listed as 3): 8.2 mJ/m^2
γS, surface free energy ([2]; listed as 3): 26.6 mJ/m^2

N#C/C(=C1/SC[C@@H](c2ccc(Cl)cc2Cl)S1)n1ccnc1 [Crystal 4, Luliconazole]
Amount of formation of Z isomer (%) under condition of suspension in water and exposure to light ([1]; listed as 4): 0.07%
γS^p/γS, ratio of polar component of surface free energy ([2]; listed as 4): 20%
γS^d, dispersion component of surface free energy ([2]; listed as 4): 20.3 mJ/m^2
γS^p, polar component of surface free energy ([2]; listed as 4): 5.2 mJ/m^2
γS, surface free energy ([2]; listed as 4): 25.5 mJ/m^2
